Data: patent US7217710B2, “Substituted pyrazolopyrimidines” (SmithKline Beecham Corporation, priority 2001, dated 2007)

Columns and labels:
[1] = target: T1, catalytic domain of human VEGFR3 (Homo sapiens, UniProt P35916, H890Q); experiment: VEGFR-3 Homogenous Time-Resolved Fluorescence Assay (VEGFR-3-HTRF); type: biochemical; conditions: read-out: VEGFR3 PIC50 VEGFR-3-HTRF assay
T1 construct: made in house; host or cells: Sf9 insect cells (baculovirus, pFastBac1)
From the text: VEGFR—3-Homogenous Time-Resolved Fluorescence Assay (VEGFR-3-HTRF)
This assay assesses Vascular Endothelial Growth Factor 3 (VEGFR3) tyrosine kinase inhibitory activity in substrate phosphorylation assays. The assay examines the ability of small molecule organic compounds to inhibit the tyrosine phosphorylation of a peptide substrate.
The substrate phosphorylation assays use the VEGFR3 catalytic domain, which is expressed in Sf. 9 insect cells as an amino-terminal GST-tagged fusion protein. The catalytic domain of human VEGFR3 (AA residues #819–1298 based upon GenBank Accession #XM003852) is cloned by PCR from human Placenta Marathon Ready cDNA (Clontech). The PCR product is subcloned into pFastBac1 vector containing an N-terminal GST tag. The resulting pFB/GST/VEGFR3icd vector is used to generate a recombinant baculovirus for protein expression. The VEGFR3 catalytic domain translated sequence is:
Autophosphorylation allows enzymes to be fully activated prior to addition to peptide substrates. The assays are performed using enzyme that has been activated by autophosphorylation via preincubation in buffer with ATP and magnesium. Activated enzyme is then diluted and added to titrated compound and the substrate mix.
200 nM VEGFR3 enzyme is activated for 45 minutes at room temperature by incubating the enzyme in buffer containing 100 mM HEPES (pH7.2), 75 μM ATP, 0.3 mM DTT, 0.1 mg/mL BSA, and 10 mM MgCl2. After activation, VEGFR3 is diluted 100-fold into 2× dilution buffer: 200 mM HEPES (pH 7.5), 0.2 mg/mL BSA, 0.6 mM DTT. 20 μL of the diluted enzyme mix is added to 20 μL of 2× substrate mix (150 μM ATP, 20 mM MgCl2, 0.72 μM biotinylated peptide) in the assay plates. Final assay conditions are: 100 mM HEPES (pH 7.2), 75 μM ATP, 10 mM MgCl2, 0.1 mg/mL BSA, 0.3 mM DTT, 0.36 μM biotinylated peptide, and 1 nM VEGFR3 enzyme. Assay plates are incubated for 1.5 hours at room temperature before the addition of 30 μL 100 mM EDTA to the wells to stop the enzymatic reaction. 40 μL/well of HTRF mix are then added to the assay plates for the detection of phosphorylated substrate. Final assay concentrations are: 100 mM HEPES (pH7.2), 0.1 mg/mL BSA, 15 nM streptavidin-labeled allophycocyanin (PerkinElmer), and 1 nM europium-labeled anti-phosphotyrosine antibody (PerkinElmer). Assay plates are left unsealed and are counted in a Wallac Multilabel Counter 1420 (PerkinElmer).
The data for dose responses are plotted as % Control calculated with the data reduction formula 100*(U1–C2)/(C1–C2) versus concentration of compound where U is the unknown value, C1 is the average control value obtained for DMSO , and C2 is the average control value obtained for 0.1M EDTA. Data are fitted to the curve described by: y=((Vmax*x)/(K+x)) where Vmax is the upper asymptote and K is the IC50.

[2] = target: T2, GST-TIE2 (intracellular domains of human TIE2) (Homo sapiens, UniProt Q02763); experiment: TIE-2 Enzyme Assay (TIE2-E2), LANCE method; type: biochemical; conditions: for IC50: read-out: TIE2 PIC50 TIE2-E2 assay
T2 construct: made in house
From the text: TIE-2 Enzyme Assay (TIE2-E2
The TIE-2 enzyme assay uses the LANCE method (Wallac) and GST-TIE2, baculovirus-expressed recombinant constructs of the intracellular domains of human TIE2 (amino acids 762–1104, GenBank Accession # L06139) tagged by GST). The method measures the ability of the purified enzymes to catalyse the transfer of the γ-phosphate from ATP onto tyrosine residues in a biotinylated synthetic peptide, D1–15 (biotin-C6-LEARLVAYEGWVAGKKKamide). This peptide phosphorylation is detected using the following procedure: for enzyme preactivation, GST-TIE2 is incubated for 2 hours at room temperature with 80 μM ATP, 10 mM MgCl2, 0.1 mg/ml BSA, 0.01% Tween 20 and 1 mM DTT in 100 mM HEPES buffer (pH7.4). 5 nM preactivated GST-TIE2 is incubated for 2 hours at room temperature in 96 well plates with 1 uM D1–15 peptide, 80 uM ATP, 10 mM MgCl2, 0.1 mg/ml BSA, 0.01% Tween 20 and titrated test compound (diluted from a 10 mM stock in DMSO, final DMSO concentration is 2.4%) in 100 mM HEPES (pH7.4). The reaction is stopped by the addition of EDTA (final concentration 45 mM). Streptavidin linked-APC (allophycocyanin, PerkinElmer) and europium-labeled anti-phosphotyrosine antibody (PerkinElmer) are then added at the final concentration of 8 nM and 1 nM, respectively. The APC signal is measured using an Wallac Multilabel 1420 counter. (Wallac Berthold Japan). The percent inhibition of activity is calculated relative to blank control wells. The concentration of test compound that inhibits 50% of activity (IC50) is interpolated using nonlinear regression (Levernberg-Marquardt) and the equation, y=Vmax (1−x/(K+x))+Y2, where “K” is equal to the IC50. The IC50 values are converted to pIC50 values, i.e., −log IC50 in Molar concentration.

T1 sequence (P35916 with tags, fused parts or gaps isoform P35916-1 H890Q): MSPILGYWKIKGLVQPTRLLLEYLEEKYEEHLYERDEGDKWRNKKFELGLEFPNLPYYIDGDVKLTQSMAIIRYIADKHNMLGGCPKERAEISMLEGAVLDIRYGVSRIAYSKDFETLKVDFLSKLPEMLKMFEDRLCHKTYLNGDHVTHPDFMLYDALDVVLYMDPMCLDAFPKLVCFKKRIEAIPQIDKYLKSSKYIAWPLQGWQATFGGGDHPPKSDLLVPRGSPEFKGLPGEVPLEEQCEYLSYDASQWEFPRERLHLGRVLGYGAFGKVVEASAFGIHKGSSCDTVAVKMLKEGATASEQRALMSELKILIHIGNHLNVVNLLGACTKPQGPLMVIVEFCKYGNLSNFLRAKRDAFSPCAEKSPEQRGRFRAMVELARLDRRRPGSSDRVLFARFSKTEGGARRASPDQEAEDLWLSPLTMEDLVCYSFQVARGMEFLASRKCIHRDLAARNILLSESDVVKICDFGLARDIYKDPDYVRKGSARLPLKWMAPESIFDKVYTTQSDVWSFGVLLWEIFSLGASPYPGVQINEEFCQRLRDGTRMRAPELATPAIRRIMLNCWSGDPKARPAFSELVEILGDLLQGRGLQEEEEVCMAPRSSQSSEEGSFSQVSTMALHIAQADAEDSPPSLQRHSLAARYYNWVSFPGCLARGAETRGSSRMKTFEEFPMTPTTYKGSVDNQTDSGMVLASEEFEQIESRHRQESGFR
T2 sequence (Q02763 762-1104): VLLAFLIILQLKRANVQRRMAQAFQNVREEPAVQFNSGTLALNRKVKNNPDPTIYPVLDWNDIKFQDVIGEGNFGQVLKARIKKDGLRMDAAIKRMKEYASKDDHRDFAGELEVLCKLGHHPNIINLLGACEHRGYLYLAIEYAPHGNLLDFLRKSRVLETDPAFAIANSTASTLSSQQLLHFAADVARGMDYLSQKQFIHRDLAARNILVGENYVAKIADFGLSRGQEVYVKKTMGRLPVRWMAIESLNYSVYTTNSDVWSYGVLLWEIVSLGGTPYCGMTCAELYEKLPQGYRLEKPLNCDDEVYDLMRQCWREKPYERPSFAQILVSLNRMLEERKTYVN

IC50 [1] [nM] | IC50 [2] [nM] | Compound | TIE2 PIC50 TIE2-E2 assay [2]
> 10000 | > 10000 | Cn1nc(-c2ccc(NS(=O)(=O)c3cccc(Cl)c3Cl)cc2)c2cnc(NCCCn3ccnc3)nc21 [Example 116, 2,3-Dichloro-N-{4-[1-methyl-6-(3-imidazol-1-yl-propylamino)-1H-pyrazolo[3,4-d]pyrimidin-3-yl]-phenyl}-benzenesulfonamide] | –
1000 to 10000 | ≤ 39.8 | Cn1nc(-c2ccc(NC(=O)Nc3cccc(C(F)(F)F)c3)cc2)c2cnc(NCCN3CCOCC3)nc21 [Example 42, 1-{4-[1-Methyl-6-(2-morpholin-4-yl-ethylamino)-1H-pyrazolo[3,4-d]pyrimidin-3-yl]-phenyl}-3-(3-trifluoromethyl-phenyl)-urea] | –
> 10000 | 1000 to 10000 | CN1CCN(CCCNc2ncc3c(-c4ccc(NS(=O)(=O)c5cccc(Cl)c5Cl)cc4)nn(C)c3n2)CC1 [Example 111, 2,3-Dichloro-N-(4-{1-methyl-6-[3-(4-methyl-piperazin-1-yl)-propylamino]-1H-pyrazolo[3,4-d]pyrimidin-3-yl]-phenyl}-benzenesulfonamide] | –
100 to 1000 | 39.8 to 100 | Cn1nc(-c2ccc(NC(=O)Nc3cc(C(F)(F)F)ccc3F)cc2)c2cnc(NCCc3ccncc3)nc21 [Example 140, 1-(2-Fluoro-5-trifluoromethyl-phenyl)-3-{4-[(1-methyl-6-(2-pyridin-4-yl-ethylamino)-1H-pyrazolo[3,4-d]pyrimidin-3-yl]-phenyl]} urea] | –
> 10000 | 1000 to 10000 | Cn1nc(-c2ccc(NS(=O)(=O)c3cccc(Cl)c3Cl)cc2)c2cnc(NCCCCNC(=N)N)nc21 [Example 121, 2,3-Dichloro-N-{4-[1-methyl-6-(4-guanidino-butylamino)-1H-pyrazolo[3,4-d]pyrimidin-3-yl]-phenyl}-benzenesulfonamide] | –
> 10000 | 1000 to 10000 | Cn1nc(-c2ccc(NS(=O)(=O)c3cccc(Cl)c3Cl)cc2)c2cnc(NCCCN)nc21 [Example 119, 2,3-Dichloro-N-{4-[1-methyl-6-(3-amino-propylamino)-1H-pyrazolo[3,4-d]pyrimidin-3-yl]-phenyl}-benzenesulfonamide] | –
1000 to 10000 | – | Cn1cccc1CCNc1ncc2c(-c3ccc(NS(=O)(=O)c4cccc(Cl)c4Cl)cc3)nn(C)c2n1 [Example 117, 2,3-Dichloro-N-(4-{1-methyl-6-[2-(1-methyl-1H-pyrrol-2-yl)ethylamino]-1H-pyrazolo[3,4-d]pyrimidin-3-yl]-phenyl}-benzenesulfonamide] | –
– | 1000 to 10000 | Cn1nc(-c2ccc(NC(=O)Nc3cc(C(F)(F)F)ccc3F)cc2)c2cnc(NCc3ccccc3)nc21 [Example 62, 1-(2-fluoro-5-trifluoromethyl-phenyl)-3-{4-[1-methyl-6-(benzylamino)-1H-pyrazolo[3,4-d]pyrimidin-3-yl]-phenyl}-urea] | –
– | 100 to 1000 | CC(=O)c1cccc(NC(=O)Nc2ccc(-c3nn(C)c4nc(NCCN5CCOCC5)ncc34)cc2F)c1 [Example 54, 1-(3-Acetyl-phenyl)-3-{2-fluoro-4-[1-methyl-6-(2-morpholin-4-yl-ethylamino)-1H-pyrazolo[3,4-d]pyrimidin-3-yl]-phenyl}-urea] | –
– | – | Cc1cc(-c2nn(C)c3nc(NCCN4CCOCC4)ncc23)ccc1NC(=O)Nc1ccc(Cl)c(C(F)(F)F)c1 [Example 44, 1-(Chloro-trifluoromethyl-phenyl)-3-{methyl-[methyl-(2-morpholin-4-yl-ethylamino)-1H-pyrazolo[3,4-d]pyrimidin-3-yl]-phenyl}-urea] | ++ (++ = PIC50 = 6.00 to less than 7.00)
– | 39.8 to 100 | Cn1nc(-c2ccc(NC(=O)Nc3cc(C(F)(F)F)ccc3F)cc2)c2cnc(NCCCN)nc21 [Example 94, 1-(2-Fluoro-5-trifluoromethyl-phenyl)-3-{4-[1-methyl-6-(3-amino-propylamino)-1H-pyrazolo[3,4-d]pyrimidin-3-yl]-phenyl} urea] | –
1000 to 10000 | > 10000 | CC(=O)NCCNc1ncc2c(-c3ccc(NS(=O)(=O)c4cccc(Cl)c4Cl)cc3)nn(C)c2n1 [Example 115, 2,3-Dichloro-N-{4-[1-methyl-6-(2-acetylamino-ethylamino)-1H-pyrazolo[3,4-d]pyrimidin-3-yl]-phenyl}-benzenesulfonamide] | –
– | 1000 to 10000 | Cc1cc(-c2nn(C)c3nc(NCCN4CCOCC4)ncc23)ccc1NC(=S)Nc1cccc(C(F)(F)F)c1 [Example 58, 1-{2-Methyl-4-[1-methyl-6-(2-morpholin-4-yl-ethylamino)-1H -pyrazolo[3,4-d]-pyrimidin-3-yl]-phenyl}-3-(3-trifluoromethyl-phenyl)-thiourea] | –
– | – | Cc1cc(-c2nn(C)c3nc(NCCN4CCOCC4)ncc23)ccc1NC(=O)Nc1cc(C(F)(F)F)ccc1F [Example 43, 1-(2-Fluoro-5-trifluoromethyl-phenyl)-3-{methyl-[methyl-(2-morpholin-4-yl-ethylamino)-1H-pyrazolo[3,4-d]pyrimidin-3-yl]-phenyl}-urea] | +++ (+++ = PIC50 = 7.00 to less than 7.40)
– | 1000 to 10000 | Cn1nc(-c2ccc(NS(=O)(=O)c3cccc(Cl)c3Cl)cc2)c2cnc(NCCCCN)nc21 [Example 120, 2,3-Dichloro-N-{4-[1-methyl-6-(4-amino-butylamino)-1H-pyrazolo[3,4-d]pyrimidin-3-yl]-phenyl}-benzenesulfonamide] | –
– | 100 to 1000 | Cn1nc(-c2ccc(NC(=O)Nc3cc(C(F)(F)F)ccc3F)cc2)c2cnc(NCc3cccnc3)nc21 [Example 144, 1-(2-Fluoro-5-trifluoromethyl-phenyl)-3-{4-[(1-methyl-6-(pyridin-3-ylmethyl)-amino)-1H-pyrazolo[3,4-d]pyrimidin-3-yl]-phenyl} urea] | –
– | – | 2,3-Dichloro-N-{4-[1-methyl-6-(3-diethylamino -propylamino)-1H-pyrazolo[3,4-d]pyrimidin-3-yl]-phenyl}-benzenesulfonamide [Example 107] | −− (−− = PIC50 less than 5.00)
– | – | Cc1cc(-c2nn(C)c3nc(NCCN4CCOCC4)ncc23)ccc1NC(=O)Nc1cccc(C(F)(F)F)c1 [Example 48, 1-{2-Methyl-4-[methyl-(2-morpholin-4-yl-ethylamino)-1H -pyrazolo[3,4-d]pyrimidin-3-yl]-phenyl}-3-(3-trifluoromethyl-phenyl)-urea] | ++ (++ = PIC50 = 6.00 to less than 7.00)
> 10000 | 100 to 1000 | Cn1nc(-c2ccc(NC(=O)Nc3cc(C(F)(F)F)ccc3F)cc2)c2cnc(NCCc3cccnc3)nc21 [Example 141] | –
– | ≤ 39.8 | Cn1nc(-c2ccc(NC(=O)Nc3cc(C(F)(F)F)ccc3F)cc2)c2cnc(NCCCCN)nc21 [Example 95, 1-(2-Fluoro-5-trifluoromethyl-phenyl)-3-{4-[1-methyl-6-(4-amino-butylamino)-1H-pyrazolo[3,4-d]pyrimidin-3-yl]-phenyl} urea] | –
